Series [1] has as its system Human immunodeficiency virus 1. Nature of the series: Antiviral activity against HIV1 3B infected in human MT2 cells assessed as inhibition of virus-induced cytopathic effect by MTT assay. The class given is functional, organism-based. A general note: Damage to the host cells serves as the signal in cytopathic effect assays.
The subject of the next series is MT2. Nature of the series: (§1) Cytotoxicity against human MT2 cells by MTT assay. Type of series: cell-based. As to conditions: mt2; call rule not given here.
A short description of series [2]: as §1. The class given is cell-based. As to conditions: MT2 cells.
The mark [3] stands for this setting: Human immunodeficiency virus 1, 3B, MT2, read-out: EC50.

Some results are limits rather than exact numbers.

Regarding `COc1nc(NCCCNc2nc(Nc3ccc(C#N)c(OCC=C(C)C)c3)nc(OC)n2)nc(Nc2ccc(C#N)c(OCC=C(C)C)c2)n1`, the concentration giving a half-maximal response (EC50) result in series [1] (mt2) was “Not Active”. Further, in the series on MT2, the midpoint of cytotoxicity, the CC50, lay at 50 µM.

On to `CCc1nc(Nc2ccc(C#N)c(OCC=C(C)C)c2)nc(OCCOCCOC)n1`, for which, in series [1] (setting [3]), the concentration giving a half-maximal response (EC50) was 0.54 µM. Besides, the CC50 with MT2 turned out to be 9.8 µM.

For the molecule `COc1nc(Nc2ccc(C#N)c(OCC=C(C)C)c2)nc(OCCCOc2nc(Nc3ccc(C#N)c(OCC=C(C)C)c3)nc(OC)n2)n1`, in series [1] (setting [3]), the 50% effective concentration (EC50) worked out at 0.17 µM. The CC50 in the series on MT2 came to 21 µM.

In the case of `COCCOc1nc(Nc2ccc(C#N)c(OCC=C(C)C)c2)nc(OC)n1`, the EC50 in series [1] (setting [3]) was determined as 0.097 µM. In the series on MT2, this molecule showed a half-maximal cytotoxic concentration (CC50) of 8.6 µM.

As for `Cc1ccnc2c1NC(=O)c1cccnc1N2C1CC1` [NEVIRAPINE], the CC50 in series [2] was above 100 µM.

Consider `COc1nc(Nc2ccc(C#N)c(OCC=C(C)C)c2)nc(OCCC2CCCCO2)n1` (racemic), for which, in series [1] (setting [3]), the EC50 amounted to 1.2 µM. The midpoint of cytotoxicity with MT2, the CC50, lay at 4.2 µM.

As for `COCCOCCOc1nc(Nc2ccc(C#N)c(OCC=C(C)C)c2)nc(OC)n1`, in series [1] (setting [3]), the EC50 is 0.15 µM. Besides, the CC50 in the series on MT2 was determined as 13 µM.

As to `CCc1nc(Nc2ccc(C#N)c(OCC=C(C)C)c2)nc(OCCOC)n1`, in series [1] (setting [3]), the 50% effective concentration (EC50) was found to be 0.057 µM. This molecule showed a half-maximal cytotoxic concentration (CC50) in the series with MT2 of 2.1 µM.

For `COCCOCCOCCOc1nc(Nc2ccc(C#N)c(OCC=C(C)C)c2)nc(OC)n1`, the EC50 in series [1] (setting [3]) was found to be 0.38 µM. Besides, the half-maximal cytotoxic concentration (CC50) with MT2 came out at 4.2 µM.

Consider `COc1nc(Nc2ccc(C#N)c(OCC=C(C)C)c2)nc(OCCOc2nc(Nc3ccc(C#N)c(OCC=C(C)C)c3)nc(OC)n2)n1`, for which the EC50 in series [1] (setting [3]) was found to be 0.39 µM. Moreover, half-maximal cytotoxicity with MT2 (CC50) was put at 42 µM.

For `COc1nc(Nc2ccc(C#N)c(OCC=C(C)C)c2)nc(OCCCCOc2nc(Nc3ccc(C#N)c(OCC=C(C)C)c3)nc(OC)n2)n1`, the EC50 result in series [1] (mt2) was “Not Active”. Further, the CC50 with MT2 was above 100 µM.

As for `COc1nc(NCCNc2nc(Nc3ccc(C#N)c(OCC=C(C)C)c3)nc(OC)n2)nc(Nc2ccc(C#N)c(OCC=C(C)C)c2)n1`, the EC50 result in series [1] (mt2) was “Not Active”. It took 6 µM to reach half-maximal cytotoxicity with MT2 (CC50).

Consider `COc1nc(Nc2ccc(C#N)c(OCC=C(C)C)c2)nc(OCCN2CCN(C)CC2)n1`, for which, in series [1] (setting [3]), the EC50 worked out at 0.32 µM. Further, the half-maximal cytotoxic concentration (CC50) in the series with MT2 came out at 7 µM.

As to `COc1nc(Nc2ccc(C#N)c(OCC=C(C)C)c2)nc(OCCOCCOc2nc(Nc3ccc(C#N)c(OCC=C(C)C)c3)nc(OC)n2)n1`, the EC50 result in series [1] (mt2) is on record as “Not Active”. In addition, the CC50 with MT2 is above 100 µM.

The term EC50 denotes the concentration giving half of the maximal effect. One may read the CC50 as the concentration at which the toxic effect on the cells reaches its halfway point. Read a low CC50 as greater toxicity to the cells.

The values are drawn from ChEMBL document CHEMBL1949500, “Discovery of dimeric inhibitors by extension into the entrance channel of HIV-1 reverse transcriptase” (Bioorg Med Chem Lett, 2012).
